Earlier results in paper PMC5377275 (ACS Omega, 2017).

Tested on: cytosolic lysates

Compound	Effect of inhibitor on ubiquitination of KGSYGK(FAM)RRR	further results
RRRG		Ubiquitination of primary degron in HeLa cell lysates (lysine residue positioned at the C-terminus): rapidly ubiquitinated
KGSYGK(FAM)RRR		Ubiquitination of p53/MDM2-based peptide in cytosolic lysates: readily ubiquitinated
O=C1c2ccccc2-c2nc3nonc3nc21 [SMER3]	impaired	
O=C(O)COc1ccc(Br)cc1/C=C1\SC(=S)N(Cc2cccnc2)C1=O [SKPin C1]	impaired	
